# Reference: patent US20250122174A1 (Shenzhen Yuanli Shenwan Innovative Medicine Co., Ltd., priority 2022, published 2025)
# Target: HPK1 (Homo sapiens (Human), UniProt Q92918)
# Assay: HPK1 Inhibition Assay (ADP-Glo kinase assay)
# Type: biochemical
# Conditions: ATP 10 μM
# Summary of the method: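 ADP-Glo luminescence read-out after 1 h room-temperature kinase reaction with 10 μM ATP and 0.1 μg/ml MBP. Recombinant human HPK1 at 7.5 ng/μl; buffer 40 mM Tris pH 7.5, 20 mM MgCl2. Compounds serially diluted 5-fold over 10 points from 10 mM DMSO stock.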
# Sequence of HPK1 (Q92918 1-346 limits assumed): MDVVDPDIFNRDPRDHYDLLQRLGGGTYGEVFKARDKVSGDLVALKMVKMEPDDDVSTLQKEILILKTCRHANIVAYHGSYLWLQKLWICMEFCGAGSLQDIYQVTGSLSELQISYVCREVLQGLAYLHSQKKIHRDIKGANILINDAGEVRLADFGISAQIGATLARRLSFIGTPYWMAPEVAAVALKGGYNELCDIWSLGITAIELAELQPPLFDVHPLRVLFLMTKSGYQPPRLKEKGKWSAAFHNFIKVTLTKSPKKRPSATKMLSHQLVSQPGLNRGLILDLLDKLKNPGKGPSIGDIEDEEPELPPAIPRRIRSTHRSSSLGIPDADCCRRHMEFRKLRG
row,IC50,Structure (SMILES)
1,< 100 nM,"CC(C)c1nc2c(N3CC(N)C(O)C3)c(NC(=O)c3ccc(=O)n(-c4c(F)cccc4F)n3)ccc2n1C (centres unmarked) [Example 142, N-(4-(3-amino-4-hydroxypyrrolidin-1-yl)-2-isopropyl-1-methyl-1H-benzo[d]imidazol-5-yl)-1-(2,6-difluorophenyl)-6-oxo-1,6-dihydropyridazine-3-carboxamide]"
2,< 100 nM,"CC(C)n1cc2c(N3CCC[C@@H](N)C3)c(NC(=O)c3ccc(=O)n(-c4c(F)cccc4F)n3)ccc2n1 [Example 232, (R)-N-(4-(3-aminopiperidin-1-yl)-2-isopropyl-2H-indazol-5-yl)-1-(2,6-difluorophenyl)-6-oxo-1,6-dihydropyridazine-3-carboxamide]"
3,< 100 nM,"CO[C@H]1CN(c2c(NC(=O)c3ccc(=O)n(-c4c(F)cccc4F)n3)ccc3c2cnn3C(C)C)C[C@H]1N [Example 205, N-(4-((3R,4S)-3-amino-4-methoxypyrrolidin-1-yl)-1-isopropyl-1H-indazol-5-yl)-1-(2,6-difluorophenyl)-6-oxo-1,6-dihydropyridazine-3-carboxamide]"
4,< 100 nM,"CC1(C)CN(c2c(NC(=O)c3ccc(=O)n(-c4c(F)cccc4F)n3)ccc3nn([C@H]4CCOC4)cc23)C[C@H]1N [Example 325, N-(4-((S)-4-amino-3,3-dimethylpyrrolidin-1-yl)-2-((S)-tetrahydrofuran-3-yl)-2H-indazol-5-yl)-1-(2,6-difluorophenyl)-6-oxo-1,6-dihydropyridazine-3-carboxamide]"

# The next lines start with the compound.
row,Structure (SMILES),IC50
1,"COc1cccc(Cl)c1-c1nccc(C(=O)Nc2cc(F)ccc2N2C[C@H]3C[C@@H]2CN3)c1F [Example 6, N-(2-((1R,4R)-2,5-diazabicyclo[2.2.1]heptan-2-yl)-5-fluorophenyl)-2-(2-chloro-6-methoxyphenyl)-3-fluoroisonicotinamide]",100 to 1000 nM
2,"[2H]C([2H])([2H])n1ncc2c(N3C[C@@H](C)[C@@H](N)C3)c(NC(=O)c3ccc(=O)n(-c4c(F)cccc4F)n3)ccc21 [Example 171, N-(4-((3R,4R)-3-amino-4-methylpyrrolidin-1-yl)-1-(methyl-d3)-1H-indazol-5-yl)-1-(2,6-difluorophenyl)-6-oxo-1,6-dihydropyridazine-3-carboxamide]",< 100 nM
3,Cn1c(C(C)(C)C)nc2c(N3CCC[C@H]3CN)c(NC(=O)c3ccc(=O)n(-c4c(F)cccc4F)n3)ccc21 [Example 103],< 100 nM
4,"CC[C@@H](C)n1ncc2c(N3C[C@@H](C)[C@@H](N)C3)c(NC(=O)c3ccc(=O)n(-c4c(F)cccc4F)n3)ccc21 [Example 257, N-(4-((3R,4R)-3-amino-4-methylpyrrolidin-1-yl)-1-((R)-sec-butyl)-1H-indazol-5-yl)-1-(2,6-difluorophenyl)-6-oxo-1,6-dihydropyridazine-3-carboxamide]",< 100 nM
5,"COc1cccc(F)c1-c1cccc(C(=O)Nc2ccc3nn(C)cc3c2N2C[C@H]3C[C@@H]2CN3)[n+]1[O-] [Example 57, 2-((4-((1R,4R)-2,5-diazabicyclo[2.2.1]heptan-2-yl)-2-methyl-2H-indazol-5-yl)carbamoyl)-6-(2-fluoro-6-methoxyphenyl)pyridine 1-oxide]",< 100 nM
6,"COc1cccc(F)c1-c1nccc(C(=O)Nc2ccc3c(nc(-c4ccncc4F)n3C)c2N2CC[C@H](N)C2)c1F [Example 14, N-{4-[(3S)-3-aminopyrrolidin-1-yl]-2-(3-fluoropyridin-4-yl)-1-methyl-1,3-benzodiazol-5-yl}-3-fluoro-2-(2-fluoro-6-methoxyphenyl)pyridine-4-carboxamide]",< 100 nM
7,"COc1cccc(F)c1-c1cccc(C(=O)Nc2ccc3c(nc(C)n3C)c2N2C[C@@H]3C[C@H]2CN3)[n+]1[O-] [Example 60, 2-((4-((1S,4S)-2,5-diazabicyclo[2.2.1]heptan-2-yl)-1,2-dimethyl-1H-benzo[d]imidazol-5-yl)carbamoyl)-6-(2-fluoro-6-methoxyphenyl)pyridine 1-oxide]",< 100 nM
